Earlier results, collected in article PMC7504348 (Molecules, 2020).

tested on: AChE; conditions: dataset for 2D-QSAR model, Ellman's method, galantamine as reference; cited from earlier work

SMILES | pIC50 (AChE dataset, Table S4)
Cc1nccc2c1[nH]c1ccccc12 [CHEMBL12014] | 4.23
CC1=NCCc2c1[nH]c1cc(O)ccc21 [CHEMBL129177] | 4.47
c1ccc(CNc2ccccc2)cc1 [CHEMBL237223] | 4.59
CCOC(=O)c1c(C)nc2nc3c(c(N)c2c1-c1ccccc1)CCCC3 [CHEMBL253386] | 5.49
COc1ccc2c(c1)[nH]c1c(C)nccc12 [CHEMBL269538] | 4.19
COc1ccc2c3c([nH]c2c1)C(C)=NCC3 [CHEMBL340807] | 4.80
CN(C)CCc1c[nH]c2ccc(O)cc12 [CHEMBL416526] | 4.94
OC[C@H]1O[C@@H](Oc2ccc(/C=N/O)cc2)[C@H](O)[C@@H](O)[C@@H]1O [CHEMBL457684] | 4.78
CO/N=C\c1ccc(O[C@@H]2O[C@H](COC(C)=O)[C@@H](OC(C)=O)[C@H](OC(C)=O)[C@H]2OC(C)=O)cc1 [CHEMBL463856] | 4.33
O=C(O[C@H]1[C@H](Oc2ccc(/C=N/O)cc2)OC[C@@H](OC(=O)c2ccccc2)[C@H]1OC(=O)c1ccccc1)c1ccccc1 [CHEMBL500712] | 4.40
COc1cc2ccnc3c2c(c1OC)-c1ccccc1C3=O [CHEMBL510090] | 4.72
CC(=O)OC[C@H]1O[C@@H](Oc2ccc(/C=N/NC(N)=S)cc2)[C@H](OC(C)=O)[C@@H](OC(C)=O)[C@@H]1OC(C)=O [CHEMBL517342] | 4.19
CCN(CC)Cc1ccc(OCCCCCCCCCCN2CCCCC2)cc1 [CHEMBL1085869] | 5.67
COc1cccc2c1C(=O)c1c(C)cc(=O)[nH]c1C2=O [CHEMBL1269160] | 4.57
COc1cc2c(cc1O)C=[N+](C)CC2.O=C([O-])C(F)(F)F [CHEMBL1270150] | 4.73
COc1cc2c(cc1O)C[N@+]1(C)CCc3cc(OC)c(OC)cc3[C@@H]1C2 [CHEMBL1270255] | 5.01
COc1ccc2c(ccc[n+]2C)c1.[I-] [CHEMBL2018160] | 4.63
CCc1ccc(N(Cc2ccc(C)cc2)C(=O)/C=C/C(=O)N(Cc2ccc(C)cc2)c2ccc(CC)cc2)cc1 [CHEMBL2296112] | 4.25
CCc1ccc(N(Cc2ccccc2)C(=O)/C=C/C(=O)N(Cc2ccccc2)c2ccc(CC)cc2)cc1 [CHEMBL2296113] | 4.21
CCOc1ccc(N(Cc2ccccc2)C(=O)/C=C/C(=O)N(Cc2ccccc2)c2ccc(OCC)cc2)cc1 [CHEMBL2296117] | 4.18
Cc1ccc(CN(C(=O)/C=C/C(=O)N(Cc2ccc(C)cc2)c2ccc(F)cc2)c2ccc(F)cc2)cc1 [CHEMBL2296124] | 4.33
Cc1ccc(CN(C(=O)/C=C/C(=O)N(Cc2ccc(C)cc2)c2ccc(I)cc2)c2ccc(I)cc2)cc1 [CHEMBL2296125] | 4.46
CC(C)[C@H](NC(=O)OCC(Cl)(Cl)Cl)C(=O)N[C@H](C)c1nc2ccc(F)cc2s1 [CHEMBL2334725] | 4.70
CC(C)[C@H](NC(=O)OCC(F)(F)F)C(=O)N[C@H](C)c1nc2ccc(F)cc2s1 [CHEMBL2334726] | 4.49

SMILES | pIC50 (AChE dataset, Table S4)
CC(C)[C@H](NC(=O)OCC(F)(F)C(F)F)C(=O)N[C@H](C)c1nc2ccc(F)cc2s1 [CHEMBL2334727] | 4.72
CC(C)[C@H](NC(=O)OCC(F)(F)C(F)(F)C(F)(F)F)C(=O)N[C@H](C)c1nc2ccc(F)cc2s1 [CHEMBL2334728] | 4.24
CCC[C@H](NC(=O)OCC)C(=O)N[C@H](C)c1nc2ccc(F)cc2s1 [CHEMBL2334730] | 4.64
CCC[C@H](NC(=O)OC(C)C)C(=O)N[C@H](C)c1nc2ccc(F)cc2s1 [CHEMBL2334732] | 4.86
CCC[C@H](NC(=O)OCC(Cl)(Cl)Cl)C(=O)N[C@H](C)c1nc2ccc(F)cc2s1 [CHEMBL2334736] | 4.72
CCC[C@H](NC(=O)OCC(F)(F)F)C(=O)N[C@H](C)c1nc2ccc(F)cc2s1 [CHEMBL2334737] | 4.71
CCC[C@H](NC(=O)OCC(F)(F)C(F)F)C(=O)N[C@H](C)c1nc2ccc(F)cc2s1 [CHEMBL2334738] | 4.69
CCC[C@H](NC(=O)OCC(F)(F)C(F)(F)C(F)(F)F)C(=O)N[C@H](C)c1nc2ccc(F)cc2s1 [CHEMBL2334739] | 4.52
CC(C)COC(=O)N[C@H](C(=O)N[C@H](C)c1nc2ccc(F)cc2s1)C(C)C [CHEMBL2334745] | 4.49
CC(C)[C@H](NC(=O)OCCBr)C(=O)N[C@H](C)c1nc2ccc(F)cc2s1 [CHEMBL2334747] | 4.51
COc1cc(CCC(=O)C2=C(CCc3ccc(O)c(OC)c3)NC(=O)NC2c2ccc(O)cc2)ccc1O (stereo not shown) [CHEMBL2381433] | 4.58
COc1ccc(C2NC(=O)NC(CCc3ccc(O)c(OC)c3)=C2C(=O)CCc2ccc(O)c(OC)c2)cc1 (stereo not shown) [CHEMBL2381434] | 4.67
COc1ccccc1/C=C1\CNCC2=C1NC(=O)NC2c1ccccc1OC (stereo not shown) [CHEMBL2385766] | 4.35
O=C1NC2=C(CNC/C2=C\c2ccc(Br)cc2)C(c2ccc(Br)cc2)N1 (stereo not shown) [CHEMBL2385768] | 4.75
O=C1NC2=C(CNC/C2=C\c2ccc(F)cc2)C(c2ccc(F)cc2)N1 (stereo not shown) [CHEMBL2385771] | 4.30
O=C1NC2=C(CNC/C2=C\c2ccc(Cl)cc2Cl)C(c2ccc(Cl)cc2Cl)N1 (stereo not shown) [CHEMBL2385772] | 4.48
O=C1NC2=C(CNC/C2=C\c2cccc3ccccc23)C(c2cccc3ccccc23)N1 (stereo not shown) [CHEMBL2385773] | 4.83
Fc1ccccc1/C=C1\CNCC2=C1NC(=S)NC2c1ccccc1F (stereo not shown) [CHEMBL2385777] | 4.34
O=[N+]([O-])c1cccc(/C=C2\CNCC3=C2NC(=S)NC3c2cccc([N+](=O)[O-])c2)c1 (stereo not shown) [CHEMBL2385779] | 4.42
S=C1NC2=C(CNC/C2=C\c2ccc(Br)cc2)C(c2ccc(Br)cc2)N1 (stereo not shown) [CHEMBL2385780] | 4.88
S=C1NC2=C(CNC/C2=C\c2ccc(Cl)cc2Cl)C(c2ccc(Cl)cc2Cl)N1 (stereo not shown) [CHEMBL2385784] | 4.53
COC(=O)[C@@H]1CCCN1CCCCCOc1ccc2c(=O)cc(-c3ccccc3)oc2c1C [CHEMBL2393074] | 4.75
NCCc1c(C(c2c[nH]c3ccccc23)C(O)CO)[nH]c2ccc(O)cc12 (stereo not shown) [CHEMBL3125443] | 4.90
CCN(CC)Cc1cccc2oc3cc(OC)ccc3c12 [CHEMBL3127043] | 4.98

SMILES | pIC50 (AChE dataset, Table S4)
COc1ccc2c(c1)[nH]c1cccc(CNC(C)C)c12 [CHEMBL3127216] | 4.84
CCN(CC)Cc1cccc2[nH]c3cc(OC)ccc3c12 [CHEMBL3127217] | 4.99
CC(C)NCc1cccc2[nH]c3cc(O)ccc3c12 [CHEMBL3127219] | 4.92
COc1cc(/C=C/c2ccc(OCCCCCCN(C)Cc3ccccc3)cc2)cc(OC)c1 [CHEMBL3132866] | 4.98
CCCN(CCC)CCCCCCOc1ccc(/C=C/c2cc(OC)cc(OC)c2)cc1 [CHEMBL3133243] | 4.97
COc1cc(/C=C/c2ccc(OCCCCCCN3CCCCC3)cc2)cc(OC)c1 [CHEMBL3133245] | 5.36
COc1cc(/C=C/c2ccc(OCCCCCCN3CCCCC3C)cc2)cc(OC)c1 (stereo not shown) [CHEMBL3133246] | 5.45
COc1cc(/C=C/c2ccc(OCCCCCCN3CCC(O)CC3)cc2)cc(OC)c1 [CHEMBL3133247] | 4.81
COc1cc(/C=C/c2ccc(OCCCCCCN3CCOCC3)cc2)cc(OC)c1 [CHEMBL3133248] | 4.66
COc1cc(/C=C/c2ccc(OCCCN(C)Cc3ccccc3)cc2)cc(OC)c1 [CHEMBL3133250] | 4.29
COc1ccccc1NC(=O)Nc1nc(-c2cc3ccccc3o2)cs1 [CHEMBL3617362] | 4.22
O=C(Nc1nc(-c2cc3ccccc3o2)cs1)Nc1ccccc1[N+](=O)[O-] [CHEMBL3617367] | 4.38
O=C(Nc1nc(-c2cc3ccccc3o2)cs1)Nc1ccccc1F [CHEMBL3617370] | 4.51
O=C(Nc1ccc(F)cc1)Nc1nc(-c2cc3ccccc3o2)cs1 [CHEMBL3617372] | 4.26
O=C(Nc1ccc(Cl)c(Cl)c1)Nc1nc(-c2cc3ccccc3o2)cs1 [CHEMBL3617375] | 4.28
COc1ccc(NC(=O)Nc2nc(-c3cc4cc(Br)ccc4o3)cs2)cc1 [CHEMBL3617380] | 4.49
Cc1ccc(NC(=O)Nc2nc(-c3cc4cc(Br)ccc4o3)cs2)cc1 [CHEMBL3617381] | 4.49
O=C(Nc1ccccc1)Nc1nc(-c2cc3cc(Br)ccc3o2)cs1 [CHEMBL3617382] | 4.63
O=C(Nc1ccc(F)cc1)Nc1nc(-c2cc3cc(Br)ccc3o2)cs1 [CHEMBL3617388] | 4.45
COc1ccc(NC(=O)Nc2nc(-c3cc4cc([N+](=O)[O-])ccc4o3)cs2)cc1 [CHEMBL3617393] | 4.47
O=C(Nc1ccc(F)cc1)Nc1nc(-c2cc3cc([N+](=O)[O-])ccc3o2)cs1 [CHEMBL3617396] | 4.39
O=C(Nc1ccc(Cl)cc1)Nc1nc(-c2cc3cc([N+](=O)[O-])ccc3o2)cs1 [CHEMBL3617397] | 4.52
